According to US20260335294A1, “TREATING CONGENITAL DISORDERS OF GLYCOSYLATION” (Mayo Foundation for Medical Education and Research, priority 2022, published 2026):
Entries after “also recorded” stand apart in the source; their conditions may differ.

Key:
[1] = tested on: PMM2-CDG and healthy fibroblasts; experiment: Metabolomic profiling (LC/MS, GC/MS) of fibroblasts treated with epalrestat; assay type: cell-based, human
Procedure: Patient (P1-P6) and control fibroblasts were obtained by a skin punch biopsy. Fibroblasts were maintained in low glucose DMEM (Gibco) supplemented with 10% FBS in an incubator at 37 °C, 5% CO2, no longer than two months or until they reached passage 15 to avoid senescence. Routine mycoplasma testing was performed.
Briefly, 15,000 fibroblasts were plated in 1.5 mL DMEM (Gibco, 5.5 mM glucose, 2 mM glutamine, 10% FBS) per well in two 6-well plates. The medium change was performed on day 2 and day 4. On day 6, the medium was removed, cells were washed with ice-cold 0.9% NaCl (Sigma) (physiological solution) and 250 μL of extraction buffer (80% MeOH, IS) was added to the cells. Next, cells were scraped and the cell extracts transferred to 1.5 mL Eppendorf tubes and placed overnight at −80 °C. Next, samples were centrifuged at 15,000 rpm, 4 °C, 20 minutes. The supernatant was transferred to a vial for direct analysis by LC/MS, while 100 μL of 200 mM NaOH was added to the (protein) pellet. Pellets were incubated at 95 °C for 30 minutes after which they were centrifuged at 5,000 rpm, 4 °C, 10 minutes. Supernatant was used to determine protein concentration by BCA protein assay kit (Pierce).
(§1) Fibroblasts were plated in 6-well plates for LC/MS and T75 flasks for GC/MS analysis as described above. After 24 hours, medium was removed and cells washed with PBS. Then, DMEM containing 5.5 mM glucose, 2 mM glutamine, and 10% dialyzed FBS was added. Epalrestat was freshly prepared and fibroblasts were supplemented with 10 μM epalrestat daily. After 48 hours media was changed, and 48 hours after that, metabolites were extracted and measured by both LC/MS and GC/MS. Zebrafish embryos were genotyped at 2 days post fertilization (dpf), and were treated by adding the epalrestat (solubilized in DMSO) directly into the embryo media at 5 dpf. Control embryos were similarly treated with DMSO alone. Embryos were harvested for metabolic analyses 24 hours posttreatment. The final concentration of DMSO was equivalent between control and treatment, never exceeding 0.5%.
An ion-pairing liquid chromatography column (C18) was used to separate 10 μL of sample, after which the metabolites were resolved on a Thermo Fisher Q-Exactive Hybrid Quadrupole-Orbitrap Mass Spectrometer (negative ion mode). The ESI settings were as follows: 50 sheet gas flow rate, auxiliary gas flow rate 15, spray voltage of 4 kV, S-lens RF level of 60, and the capillary temperature at 350 °C. A full scan (resolution 140,000 at 200 m/z, AGC at 3 e6, 512 ms ion fill time, and 70-850 m/z scan range) was performed. The metabolites were identified according to their elution time and m/z ratios by using in-house metabolite standard library and El-Maven v0. 12.0/Polly™ Labeled LC-MS Workflow or Thermo Fisher Xcalibur software. The correction of naturally occurring carbon isotopes was also performed. Relative metabolite abundances were normalized to the internal standard and protein content.
For GC/MS measurements of hexose-P, hexose-bisphosphates, hexose and polyols, fibroblasts were cultured in a similar fashion as for LC/MS with the following adjustments: 1) an appropriate number of fibroblasts was plated in T75 flasks instead of 6-well plates to ensure the optimal amount of metabolite concentration necessary for GC/MS; 2) metabolites were extracted from cells with 2 mL 80% MeOH, IS and the supernatant was transferred to a fresh 2 mL Eppendorf tube. Standards containing metabolites of interest were prepared simultaneously and dried overnight together with cellular extracts by vacuum centrifugation at 4 °C. The following day, 20 μL of methoxyamine (MOX) (Sigma Aldrich) was added to the samples and they were incubated for 90 minutes at 37 °C. Next, 60 μL of N,O-bis(trimethylsilyl)trifluoroacetamide (TMS) (Sigma Aldrich) was added to the samples, which were then incubated at 60 °C for 30 minutes. Samples were kept overnight in a dry and cool place to allow further derivatization with TMS. […]

[2] = tested on: pmm2 mutant zebrafish; experiment: Metabolomic profiling of zebrafish treated with epalrestat; assay type: in vivo; settings: 5 dpf embryos, single dose 10 μM or 40 μM, 24 hours
Procedure: Animals were maintained according to standard protocols. The zebrafish strains were obtained from the Zebrafish International Resource Center (ZIRC, Eugene, OR). Pmm2sa10150 mutant zebrafish were established as described elsewhere (Klaver et al., JCI Insight, 6(24):e153474 (2021)).
10 embryos per sample were homogenized by sonication in extraction buffer (80% MeOH, IS). The metabolites were then precipitated at −80 °C overnight, after which the samples were centrifuged at 15,000 rpm, 20 minutes, 4 °C. Next, the supernatant was transferred to a fresh Eppendorf tube. The samples were centrifuged again at 15,000 rpm, 20 minutes, 4 °C to remove any leftover impurities and transferred to a fresh MS vial. Finally, the samples were analyzed by LC/MS.
as §1, with “Control embryos were similarly treated with DMSO alone. Embryos were harvested for metabolic analyses 24 hours posttreatment. The final concentration of DMSO was equivalent between control and treatment, never exceeding 0.5%.” left out

[3] = 10 μM daily, patient fibroblasts

CC(/C=C1\SC(=S)N(CC(=O)O)C1=O)=C\c1ccccc1 [epalrestat]
CMP-sialic acid abundance ([1]; 10 μM daily): increased
UDP-HexNAc abundance ([1]; 10 μM daily): increased
UDP-hexose abundance ([1]; 10 μM daily): increased
glucose-1-P abundance ([1]; 10 μM daily): increased
hexosamine-P abundance ([1]; 10 μM daily): increased
hexose-P abundance ([1]; 10 μM daily): increased
pentose-P abundance ([1]; 10 μM daily): increased
sedoheptulose-7-P abundance ([1]; 10 μM daily): increased
Glc-1,6-P2 abundance ([1]; 10 μM daily, PMM2-CDG fibroblasts): increased; also recorded: significantly increase
mannitol abundance ([1]; 10 μM daily, intracellular): reduced in the majority of patient fibroblasts
sorbitol abundance ([1]; 10 μM daily, intracellular): significantly reduced; also recorded: significantly decreased
overall polyol pool ([1]; 10 μM daily, patient and control cell lines, dialyzed FBS): reduced; also recorded: significantly decreased
GDP-mannose abundance [1, 3]: increased; also recorded: significantly increase
man-1-P abundance [1, 3]: increased; also recorded: significantly increase
mannose-6-P abundance [1, 3]: increased; also recorded: significantly increase
GDP-mannose levels vs controls ([1]; patient fibroblasts, epalrestat alone): never reached the same levels as the ones seen in controls
GDP-mannose level [2]: increased
polyol levels [2]: reduced
